Laboratory results published in paper PMC7108845, “An Alphaherpesvirus Exploits Antimicrobial β-Defensins To Initiate Respiratory Tract Infection” (Journal of Virology, 2020).

Key:
[1] = test system: EHV1 (isolate 03P37); format: cell-based, equine herpesvirus type 1
[2] = test system: equine influenza virus (A/equine/Kentucky/98, H3N8); format: cell-based
[3] = test system: equine CD172a+ monocytic cells; assay: CytoSelect cell migration (chemotaxis) assay; details: 0 to 10 μg/ml, 96-well Boyden chamber
[4] = test system: EIV; format: cell-based, equine influenza virus
[5] = test system: equine polymorphonuclear (PMN) cells; assay: CytoSelect cell migration (chemotaxis) assay; details: 0 to 10 μg/ml; 96-well Boyden chamber, 5-μm pores; RFU; three donor horses
[6] = test system: EHV1 particles binding to EREC; format: cell-based, equine herpesvirus type 1
[7] = test system: equine arteritis virus (08P178); format: cell-based
[8] = test system: equine CD3+ T lymphocytes; assay: CytoSelect cell migration (chemotaxis) assay; details: 0 to 10 μg/ml; 96-well Boyden chamber, 5-μm pores; RFU; three donor horses
[9] = test system: Bordetella bronchiseptica (3033); assay: MIC assay, bacterial growth inhibition; format: cell-based; details: Gram-negative; Mueller-Hinton II broth, ~10^6 CFU/ml, 0 to 100 μg/ml eBD, 24 h, 37°C, 5% CO2; lowest concentration with no visible bacterial growth
Experimental: (§1) To ensure that eBD1, -2, and -3 are potent antimicrobial peptides, a MIC test was performed to determine inhibition of the growth of a number of Gram-positive and Gram-negative bacteria found in the equine respiratory tract by eBDs. The examined concentration range of eBDs ([…] to 100 μg/ml) was chosen based on the antimicrobially active concentration range of human BDs ([21][–][25]).
(§2) Clinical bacterial isolates were used in a MIC assay to investigate the sensitivity of bacterial pathogens from the equine respiratory tract to eBDs. The test organisms included the Gram-positive bacteria Streptococcus equi subsp. zooepidemicus (strain 4001), Streptococcus equi subsp. equi (strain 3830), Staphylococcus aureus (strain 3939), and Rhodococcus equi (strain 3851) and the Gram-negative bacteria Actinobacillus equuli subsp. equuli (strain 4005) and Bordetella bronchiseptica (strain 3033). All organisms were grown on Oxoid sheep blood agar plus plates (Thermo Fisher Scientific) overnight in a humidified incubator (5% CO2) at 37°C. Inocula were prepared by swabbing bacterial colonies from the plates, suspending them in PBS (turbidity equivalent to a 0.5 McFarland standard), and diluting this suspension 1:100 in Mueller-Hinton II (MH) broth (BD Biosciences, San Jose, CA, USA), achieving a final concentration of approximately 10^6 CFU/ml. eBDs were serially 2-fold diluted in MH broth at concentrations ranging from 200 μg/ml to 0.02 μg/ml and pipetted into 96-well microtiter plates (Greiner Bio, Kremsmünster, Austria). The inoculum was added to the eBD dilutions 1:1, and the bacteria were incubated in a humidified incubator (5% CO2) at 37°C for 24 h. MIC values were determined as the lowest concentration of eBD at which there was no visible bacterial growth.

[10] = test system: Rhodococcus equi (3851); assay: MIC assay, bacterial growth inhibition; format: cell-based; details: Gram-positive; Mueller-Hinton II broth, ~10^6 CFU/ml, 0 to 100 μg/ml eBD, 24 h, 37°C, 5% CO2; lowest concentration with no visible bacterial growth
Experimental: as §1, §2

[11] = test system: Streptococcus equi subsp. zooepidemicus (4001); assay: MIC assay, bacterial growth inhibition; format: cell-based; details: Gram-positive; Mueller-Hinton II broth, ~10^6 CFU/ml, 0 to 100 μg/ml eBD, 24 h, 37°C, 5% CO2; lowest concentration with no visible bacterial growth
Experimental: as §1, §2

[12] = test system: Staphylococcus aureus (3939); assay: MIC assay, bacterial growth inhibition; format: cell-based; details: Gram-positive; Mueller-Hinton II broth, ~10^6 CFU/ml, 0 to 100 μg/ml eBD, 24 h, 37°C, 5% CO2; lowest concentration with no visible bacterial growth
Experimental: as §1, §2

[13] = test system: Streptococcus equi subsp. equi (3830); assay: MIC assay, bacterial growth inhibition; format: cell-based; details: Gram-positive; Mueller-Hinton II broth, ~10^6 CFU/ml, 0 to 100 μg/ml eBD, 24 h, 37°C, 5% CO2; lowest concentration with no visible bacterial growth
Experimental: as §1, §2

[14] = test system: Actinobacillus equuli subsp. equuli (4005); assay: MIC assay, bacterial growth inhibition; format: cell-based; details: Gram-negative; Mueller-Hinton II broth, ~10^6 CFU/ml, 0 to 100 μg/ml eBD, 24 h, 37°C, 5% CO2; lowest concentration with no visible bacterial growth
Experimental: as §1, §2

[15] = test system: EHV1 particles binding to RK13 cells; format: cell-based, equine herpesvirus type 1
[16] = test system: EHV1; format: cell-based, equine herpesvirus type 1
[17] = test system: EHV1 RacL11 Δgp2; format: cell-based, equine herpesvirus type 1
[18] = test system: EHV1 RacL11 ΔgM; format: cell-based, equine herpesvirus type 1
[19] = test system: EHV1 RacL11; format: cell-based, equine herpesvirus type 1

Nc1nc(O)c2ncn(COC(CO)CO)c2n1 [ganciclovir, reference compound]
formation and spread of EHV1 plaques [1]: almost completely blocked

MRAPYFLLLTLCLFCCQMSSGVGYLTGLGHRSDHYICARSGGTCHFSSCPLFTKIEGTCYGGKAKCCL (also: bicyclic or more (positions not given here)) [eBD1, chemically synthesized equine β-defensin, named according to its human homolog]
protection of cells from subsequent EIV infection [2]: failed to protect | chemotaxis of equine monocytic cells [3]: failed to induce | EIV entry in EREC [4]: no effect on EIV entry | EIV infectivity in EREC [4]: did not alter EIV infectivity | concentration of maximal migration of equine PMN cells [5]: 1 ng/mL | number of EHV1 particles bound per EHV1-positive EREC [6]: did not significantly differ | percentage of EREC with bound EHV1 particles [6]: 17% ± 6% | protection of cells from subsequent EAV infection [7]: failed to protect | protection of cells from subsequent EHV1 infection [1]: failed to protect | concentration of maximal migration of equine T lymphocytes [8]: 1 µg/mL | MIC [9]: >100 µg/mL | MIC [10]: >100 µg/mL | MIC [11]: >100 µg/mL | MIC [12]: >100 µg/mL | MIC [13]: >100 µg/mL | MIC [14]: >100 µg/mL | percentage of RK13 cells with bound EHV1 particles [15]: 0.78% ± 0.76%

MRIHFLLFALLFLFLMPVPGNGGIINMLQKSYCKIRKGRCALLGCLPKEEQIGSCSVSGRKCCRKKK (also: bicyclic or more (positions not given here)) [eBD3, chemically synthesized equine β-defensin, named according to its human homolog]
EIV infection of MDCK cells [2]: almost completely preventing infection | EIV infectivity [2]: decreased | formation of EIV plaques in MDCK cells [2]: decreased | protection of cells from subsequent EIV infection [2]: failed to protect | EHV1 infection of EREC [16]: not able to infect EREC more efficiently | concentration of maximal migration of equine monocytic cells ([3]; 5-μm pores, RFU, three donor horses, P < 0.05): 1 µg/mL | EIV entry in EREC [4]: no effect on EIV entry | EIV infection of EREC [4]: diminishing subsequent infection of EREC | EIV infectivity in EREC [4]: did not alter EIV infectivity | concentration of maximal migration of equine PMN cells [5]: 1 ng/mL | number of EHV1 particles bound per EHV1-positive EREC [6]: doubled | percentage of EREC with bound EHV1 particles [6]: 36% ± 8% | EAV infectivity [7]: no effect | formation of EAV plaques in RK13 cells [7]: decreased | protection of cells from subsequent EAV infection [7]: failed to protect | EHV1 infectivity [1]: no effect | average EHV1 plaque diameter [1]: doubling | increase in EHV1 infection in RK13 cells (number of plaques and plaque diameter) [1]: 3.5 fold | increase in susceptibility of RK13 cells to EHV1 (number of plaques) [1]: 1.5 fold | protection of cells from subsequent EHV1 infection [1]: failed to protect | concentration of maximal migration of equine T lymphocytes [8]: 1 µg/mL | MIC [9]: 100 µg/mL | MIC [10]: 25 µg/mL | MIC [11]: >100 µg/mL | MIC [12]: >100 µg/mL | MIC [13]: 100 µg/mL | MIC [14]: 25 µg/mL | percentage of RK13 cells with bound EHV1 particles [15]: 1.26% ± 1.34% | virus particles bound per positive RK13 cell, relative to eBD1 or control pretreatment [15]: up to 2 fold

MRILHFLLAFLIVFLLPVPGFTAGIETSFSCSQNGGFCISPKCLPGSKQIGTCILPGSKCCRKK (also: bicyclic or more (positions not given here)) [eBD2, chemically synthesized equine β-defensin, named according to its human homolog]
formation of EIV plaques in MDCK cells [2]: decreased | protection of cells from subsequent EIV infection [2]: failed to protect | infectivity of RacL11 Δgp2 in RK13 cells [17]: increase in infectivity | EHV1 infection of EREC [16]: not able to infect EREC more efficiently | chemotaxis of equine monocytic cells [3]: failed to induce | EIV entry in EREC [4]: no effect on EIV entry | EIV infection of EREC [4]: diminishing subsequent infection of EREC | EIV infectivity in EREC [4]: did not alter EIV infectivity | infectivity of RacL11 ΔgM in RK13 cells [18]: diminished | number of EHV1 particles bound per EHV1-positive EREC [6]: did not significantly differ | percentage of EREC with bound EHV1 particles [6]: 17% ± 5% | formation of EAV plaques in RK13 cells [7]: decreased | protection of cells from subsequent EAV infection [7]: failed to protect | average EHV1 plaque diameter [1]: doubling | increase in EHV1 infection in RK13 cells (number of plaques and plaque diameter) [1]: 3.5 fold | protection of cells from subsequent EHV1 infection [1]: failed to protect | concentration of maximal migration of equine T lymphocytes [8]: 1 µg/mL | infectivity of parental RacL11 strain in RK13 cells [19]: enhanced | MIC [9]: 100 µg/mL | MIC [10]: >100 µg/mL | MIC [11]: >100 µg/mL | MIC [12]: >100 µg/mL | MIC [13]: >100 µg/mL | MIC [14]: 25 µg/mL | percentage of RK13 cells with bound EHV1 particles [15]: 0.86% ± 0.97% | virus particles bound per positive RK13 cell, relative to eBD1 or control pretreatment [15]: up to 2 fold

heparin [reference compound]
EHV1 final plaque diameter in RK13 cells [1]: did not alter | EHV1 plaque formation in RK13 cells [1]: inhibited
